Like-named read-outs stand apart in the source and are kept apart here.
Columns and labels:
UdhFp = system: T1, UdhFp; assay: NADH formation at […] nm; format: biochemical, Fulvimarina pelagi
T1 construct: gene udh; N-terminal His-tag, tag kept; synthetic codon-optimized gene, E. coli BL21(DE3); start MLEKLLI (from primer)

UdhOg = system: T2, UdhOg; assay: NADH formation at […] nm; format: biochemical, Oceanicola granulosus
T2 construct: gene udh; N-terminal His-tag, tag kept; wild-type gene from genomic DNA, E. coli BL21(DE3); start MKKIVLT (from primer)

purified protein [1] = substrate: NC(=O)c1ccc[n+]([C@@H]2O[C@H](COP(=O)(O)OP(=O)(O)OC[C@H]3O[C@@H](n4cnc5c(N)ncnc54)[C@H](O)[C@@H]3O)[C@@H](O)[C@H]2O)c1; assay: purified protein; format: biochemical, Agrobacterium fabrum; conditions: 50 mM potassium phosphate pH 8.0, 37°C, uronic acid co-substrate, varied: cofactor
purified protein [2] = substrate: NC(=O)c1ccc[n+]([C@@H]2O[C@H](COP(=O)(O)OP(=O)(O)OC[C@H]3O[C@@H](n4cnc5c(N)ncnc54)[C@H](O)[C@@H]3O)[C@@H](O)[C@H]2O)c1; assay: purified protein; format: biochemical, Pseudomonas syringae group genomosp. 3; conditions: 50 mM potassium phosphate pH 8.0, 37°C, uronic acid co-substrate, varied: cofactor
[3] = 50 mM Tris-HCl pH 8.0, 37°C, co-substrate NAD+, read-out: Tris-Buffer / Kinetic parameters / Km
[4] = 50 mM potassium phosphate pH 8.0, 37°C, uronic acid co-substrate, read-out: KPi-Buffer / Kinetic parameters / Km

## O=C(O)[C@H]1OC(O)[C@H](O)[C@@H](O)[C@@H]1O (stereo partly shown) [Glucuronate]
UdhFp; [3]
  Km: 200 ± 30 µM
UdhOg; [3]
  Km: 64000 ± 3000 µM

## NC(=O)c1ccc[n+]([C@@H]2O[C@H](COP(=O)(O)OP(=O)(O)OC[C@H]3O[C@@H](n4cnc5c(N)ncnc54)[C@H](O)[C@@H]3O)[C@@H](O)[C@H]2O)c1 [NAD^+]
UdhFp; [4]
  Km: 200 ± 20 µM
UdhOg; [4]
  Km: 400 ± 100 µM

## O=C(O)[C@H]1OC(O)[C@@H](O)[C@@H](O)[C@@H]1O (stereo partly shown) [Mannuronate]
UdhFp; [3]
  Km: 6400 ± 130 µM

## O=C(O)[C@H]1OC(O)[C@H](O)[C@@H](O)[C@H]1O (stereo partly shown) [Galacturonate]
UdhFp; [3]
  Km: 20 µM
UdhOg; [3]
  Km: 55000 ± 3000 µM

B1: UdhAt (Agrobacterium fabrum str. C58) (protein)
chain: MKRLLVTGAAGQLGRVMRERLAPMAEILRLADLSPLDPAGPNEECVQCDLADANAVNAMVAGCDGIVHLGGISVEKPFEQILQGNIIGLYNLYEAARAHGQPRIVFASSNHTIGYYPQTERLGPDVPARPDGLYGVSKCFGENLARMYFDKFGQETALVRIGSCTPEPNNYRMLSTWFSHDDFVSLIEAVFRAPVLGCPVVWGASANDAGWWDNSHLGFLGWKPKDNAEAFRRHITETTPPPDPNDALVRFQGGTFVDNPIFKQS
notes: N-terminal His-tag, tag kept; synthetic codon-optimized gene, E. coli BL21(DE3)
Purified protein [1]
  Km: 100 ± 0 µM
  kcat: 144 ± 14 s⁻¹
  kcat/Km: 1.08e+06 M⁻¹ s⁻¹

B2: UdhPs (Pseudomonas syringae pv. tomato str. DC3000) (protein)
chain: MASAHTTQTPFNRLLLTGAAGGLGKVLRETLRPYSHILRLSDIAEMAPAVGDHEEVQVCDLADKDAVHRLVEGVDAILHFGGVSVERPFEEILGANICGVFHIYEAARRHGVKRVIFASSNHVIGFYKQNETIDAHSPRRPDSYYGLSKSYGEDMASFYFDRYGIETVSIRIGSSFPEPQNRRMMSTWLSFDDLTRLLERALYTPDVGHTVVYGVSDNKTVWWDNRFASKLDYAPKDSSEVFRAKVDAQPMPADDDPAMVYQGGAFVASGPFGDK
notes: as for B1
Purified protein [2]
  Km: 200 ± 30 µM
  kcat: 215 ± 12 s⁻¹
  kcat/Km: 1.26e+06 M⁻¹ s⁻¹

Source: article PMC4476818, “Characterization of uronate dehydrogenases catalysing the initial step in an oxidative pathway” (Microbial Biotechnology, 2015)
